# According to US11021687B2, “Production of differentiated enteroendocrine cells and insulin producing cells” (Massachusetts Institute of Technology, priority 2016, dated 2021):
# Read-outs that look alike come from different tables or passages of the source.
# How the values were obtained:
# [1] = tested on: intestinal stem cells; test: mRNA expression (qPCR) of ChgA and other lineage markers in differentiated intestinal stem cells; assay type: cell-based, mouse; details: for EEC marker ChgA expression / expression of markers for K cell (Gip), L cell (Gcg), and I cell (Cck): 5 days 2-step protocol, Tubastatin A in step 1, Tranylcypromine in both steps; for expression of Goblet cell marker (Muc2) and Paneth cell marker (Lyz1): 24-well validation; for expression of enteroendocrine cell marker ChgA: multiple conditions (FIG. 6); for differentiation towards EEC (ChgA expression): added to Notch and EGFR/MEK/ERK inhibition combination without R-Spondin1; for expression of functional EEC markers such as Gip, Gcg, Cck, Pyy: relative to reference gene Hprt; for ChgA expression of the differentiated cells: versus previous differentiation conditions (FIG. 21)
# Excerpt: “mRNA ChgA Expression Assay” refers to an assay used to determine the relative ChgA mRNA expression level in a cell population. For example, the assay can determine ChgA mRNA expression level of a differentiated cell population following treatment with agents being tested, as compared to an untested population of post-natal stem cells. In an example of an mRNA ChgA Expression Assay, the cells were collected and the RNA is extracted from the cells using an RNA extraction kit (such as RNeasy Mini kit, Qiagen). The ChgA expression level is then assessed by Quantitative real-time PCR using a one-step qPCR kit (such as QuantiTech Probe PCR kit, Qiagen) and ChgA primers and probes (such as commercially available Taqman probe for mouse ChgA, Life Technologies).
# (§1) Organoids or differentiated cells were harvested and RNA was extracted using RNeasy Micro Kit (Qiagen) according to the manufacturer's instruction. Quantitative real-time PCR was performed with QuantiTect Probe PCR kit (Qiagen) using commercially available primers and TaqMan probes (Life Technologies).
# Cells were then cultured with EGF, Noggin, and DAPT (END), as well as small molecules. After 2-3 days of differentiation, the cells lysed and ChgA expression was measured by qRT-PCR.
# Small molecules were further validated using a 24-well plate culture and the differentiation system. […] The expression of markers of secretory lineage cells including goblet cells (Muc2), enteroendocrine cells (ChgA), and Paneth cells (Lyz1) were measured.
# [2] = tested on: intestinal stem cells; test: Ngn3 mRNA expression during EEC differentiation; assay type: cell-based, mouse
# Protocol: “Ngn3 Assay” as used herein is an assay used to determine the extent of expression of Ngn3 in cells, such as cells subjected to a differentiation protocol. In an exemplary Ngn3 Assay, RNA is isolated from cells that have been cultured according to a differentiation protocol, and quantitative real-time PCR is performed using commercially available primers and probes (such as Taqman probes) to determine an extent of Ngn3 expression in the cells.
# as §1
# There has been prior speculation that Ngn3 positive secretory progenitors differentiate to EECs (Genes Dev. 2002).
# [3] = tested on: differentiated intestinal stem cells; test: Insulin-GFP reporter expression (FACS) in differentiated intestinal stem cells; assay type: cell-based, mouse; details: for optimal concentration in inducing insulin-GFP expression: dose response, day 5; for percentage of Insulin-GFP+ cells: further addition to 616452, day 5
# Excerpt: “Insulin Activity Assay” as used herein is an assay used to determine the extent to which insulin gene transcription, translation or insulin release has been activated in a cell population. In an exemplary Insulin Activity Assay, the initial cells are isolated from the intestine of an Insulin-GFP mouse such as […] mouse (also referred to as the MIT-GFP mouse, Jackson lab stock no.: 006864). Intestinal crypts are isolated from the proximal half of the intestine. […] The cells are then passaged for 1-2 times to create a starting cell population for the assay. To test the capacity of agents to activate insulin gene transcription, translation or insulin release, the cells are incubated with appropriate culture media (e.g. aforementioned crypt culture media), growth factors and/or other agents being tested. Appropriate culture media, including crypt culture media as well as the agents being assessed, are added into each well and incubated with the cells for a period of 2-10 days with media change every 2 days. The fraction of insulin-GFP positive cells (i.e., cells in which the insulin-GFP reporter is activated) can be quantified using a flow cytometer to measure the fraction of GFP+ cell population present in the total cell population. Also, the average insulin activity of a cell population can be measured by measuring the average mRNA expression level of insulin of the population normalized using suitable references or housekeeping genes (e.g., using mRNA expression of Hprt as a baseline).
# [4] = tested on: differentiated cell colonies
# [5] = tested on: gastrointestinal stem cells; test: Insulin / Nkx6.1 mRNA expression (qPCR), 3-stage conversion to insulin producing cells; assay type: cell-based, mouse
# Excerpt: “mRNA Insulin Expression Assay” refers to an assay used to determine the relative insulin mRNA expression level of a cell population. For example, the assay can determine the insulin mRNA level expressed in a cell population treated to increase the expression of insulin in the cells, as compared to an untreated population of cells. In an exemplary mRNA Insulin Expression Assay, the cells were collected and the RNA is extracted from the cells using an RNA extraction kit (such as RNeasy Mini kit, Qiagen). The insulin expression level is then assessed by Quantitative real-time PCR using a one-step qPCR kit (such as QuantiTech Probe PCR kit, Qiagen) and Ins1 or Ins2 primers and probes (such as the commercially available TaqMan probe for mouse Ins1 and Ins2, Life Technologies). The relative insulin mRNA expression can be determined relative to a baseline or other marker, such as Hprt mRNA expression level or other baseline marker.
# as §1
# Based on the protocol to convert gastrointestinal stem cells into insulin producing cells, a 3-stage process was developed, specifically, Day 0-1 as Stage 1, Day 1-3 as Stage 2, Day 3-5 as Stage 3. After Stage 3, the cells turn on significant level of Insulin expression as indicated by Ins-EGFP expression and qPCR for Insulin mRNA expression. Optionally, the cells can be further cultured for 1-2 weeks, as Stage 4. For each stage, a set of specific combination of small molecules (and/or growth factors) were added. The objective was to optimize the reprogramming protocol to increase insulin expression, specifically Insulin mRNA expression for each stage, by screening and testing new small molecules (or growth factors).
# [6] = ENRD conditions, 2 days of differentiation
# [7] = 96-well screening, END conditions, 2-3 days
# [8] = 2 days, added after removal of R-spondin1
# [9] = continuing culture of Islet-like Insulin expression cell colonies
# [10] = added in step 2 of 2-step protocol
# [11] = added in step 1 only versus both steps
compound,measurement,setting,value
N[C@@H]1C[C@H]1c1ccccc1 (racemic) [Tranylcypromine],expression of Goblet cell (Muc2) and Paneth cell (Lyz1) markers,"[1]; 2-step protocol, 5 days",significantly decreased
same,EEC marker ChgA expression,[1],increased
same,"expression of markers for K cell (Gip), L cell (Gcg), and I cell (Cck)",[1],also increased
same,ChgA expression,[1]; [6],increased
same,Ngn3 expression,[2]; [6],increase
"Nc1ncn([C@@H]2O[C@H](CO)[C@@H](O)[C@H]2O)c(=O)n1 [5-Aza, 5-Azacytidine]",optimal concentration in inducing insulin-GFP expression,[3],0.5 to 1 µM
same,percentage of Insulin-GFP+ cells,[3],subsequently increased
same,cell death in the culture,[4],induced cell death
"Nc1ncn([C@H]2C[C@H](O)[C@@H](CO)O2)c(=O)n1 [5Aza, 5-aza-2′-deoxycytidine]",Insulin mRNA expression,[5]; treatment extended from Stage 1 only to Stage 1 and Stage 2,slightly increased
O=C(NC[C@H](O)CO)c1ccncc1Nc1ccc(I)cc1F [AS703026],expression of Goblet cell marker (Muc2) and Paneth cell marker (Lyz1),[1]; END conditions,not similarly increased
same,ChgA expression,[1]; [7],increased
same,expression of enteroendocrine cell marker ChgA,[1],specifically increased
same,Ngn3 expression,[2]; [8],further decreased
COc1cc2ncnc(Nc3ccc(NC(=O)c4ccccc4)cc3)c2cc1OC [Aurora Kinase Inhibitor II],Insulin mRNA expression,[5]; added in Stage 3,increase
COC(=O)C1=C(C)NC(C)=C([N+](=O)[O-])C1c1ccccc1C(F)(F)F (centres unmarked) [BayK 8644],effect of removal,[4]; [9],could be removed without much influence
same,stages of addition giving highest activity,[5],highest activity when added in Stages 1-3
same,Insulin mRNA expression,[5]; added in Stage 1,increased
same,concentration of highest activity / optimal concentration in promoting Insulin expression,[5]; dose response,2 µM
"Cc1c[nH]c(-c2cnc(NCCNc3ccc(C#N)cn3)nc2-c2ccc(Cl)cc2Cl)n1 [CHIR99021, 6-[[2-[[4-(2,4-dichlorophenyl)-5-(5-methyl-1H-imidazol-2-yl)-2-pyrimidinyl]amino]ethyl]amino]-3-pyridinecarbonitrile]",GFP expression,"[3]; added in Step 1 to increase Wnt activation, 5 days",did not increase
same,Insulin mRNA expression,"[5]; Stage 3, combined with T3",further increased
same,Insulin mRNA expression,[5]; added in Stage 3,greatly increased
same,differentiation towards EEC (ChgA expression),[1],did not further increase
CC(C)Oc1ccc(-c2cnc3c(-c4ccnc5ccccc45)cnn3c2)cc1 [DMH-1],effect of removal,[4]; [9],could be removed without much influence
same,expression of Nkx6.1 and insulin,[5]; added in Stages 2-3,increased
C=C[C@@]1(C)CC(=O)[C@]2(O)[C@@]3(C)[C@@H](O)CCC(C)(C)[C@@H]3[C@H](O)[C@H](OC(C)=O)[C@@]2(C)O1 [Forskolin],cell survival,"[4]; 50-100 μM, added in Stage 3",improved cell survival
same,cell survival,[4]; [9],increased cell survival
COc1cc2ncnc(Nc3ccc(F)c(Cl)c3)c2cc1OCCCN1CCOCC1 [Gefitinib],expression of Goblet cell marker (Muc2) and Paneth cell marker (Lyz1),[1]; END conditions,not similarly increased
same,ChgA expression,[1]; [7],increased
same,expression of enteroendocrine cell marker ChgA,[1],specifically increased
same,Ngn3 expression,[2]; [8],further decreased
O=C(O)c1ccc(O)c2ncccc12 [IOX1],Insulin and Nkx6.1 expression,[5]; used at 5-10 μM,increased
"O=C(NC1CC1)c1cc(-c2cccs2)on1 [ISX-9, N-cyclopropyl-5-(2-thienyl)-3-isoxazolecarboxamide]",number of GFP+ cells,"[3]; added to the combination, 5 days in culture",further increase
same,optimal dose in promoting Insulin and Nkx6.1 expression,[5]; dose response,10 to 20 µM
same,"expression of functional EEC markers such as Gip, Gcg, Cck, Pyy",[1],decreased
same,ChgA expression of the differentiated cells,[1],further increased
Cc1ccc2nc(NC(=O)CSc3nc4c(c(=O)n3-c3ccccc3)SCC4)sc2c1 [IWP 2],differentiation towards EEC (ChgA expression),[1],did not further increase
CC(=O)N[C@@H](CS)C(=O)O [N-Acetylcysteine],Insulin mRNA expression,"[5]; Stage 3, combined with T3",further increased
same,Insulin mRNA expression,[5]; added in Stage 3,increased
"N[C@@H](Cc1cc(I)c(Oc2ccc(O)c(I)c2)c(I)c1)C(=O)O [T3, Triiodothyronine]",Insulin mRNA expression,[5]; added in Stage 3,greatly increased
"CN1CCc2c(c3ccccc3n2Cc2ccc(C(=O)NO)cc2)C1.Cl [Tubastatin A, N-Hydroxy-4-(2-methyl-1,2,3,4-tetrahydro-pyrido[4,3-b]indol-5-ylmethyl)benzamide hydrochloride]",EEC marker ChgA expression,[1],increased
same,"expression of markers for K cell (Gip), L cell (Gcg), and I cell (Cck)",[1],also increased
same,ChgA expression,[1]; [6],decreased
same,Ngn3 expression,[2]; [6],increase
O=C1O[C@H]([C@@H](O)CO)C(O)=C1O [Vitamin C],effect on conversion,[5]; added in Stage 2-3,beneficial effects
same,Insulin mRNA expression,[5]; added in Stage 3,did not show such effect
Cc1cc(-c2ccc(CC(=O)Nc3ccc(-c4cccnc4)cc3)cc2)ccn1 [Wnt-C59],percentage of Insulin-GFP+ cells,[3],subsequently increased
same,Insulin mRNA expression,[5]; addition delayed for 12 hours in Stage 2,increased
same,optimal dose in promoting Insulin and Nkx6.1 expression,[5]; dose response (FIG. 52),5 µM
same,Paneth cell marker Lyz1 expression,[1]; added in step 2,effectively decreased
same,ChgA expression,[1]; [10],further increased
same,ChgA expression,[1]; delayed addition for 12-24 hours in step 2,further increases
same,ChgA expression of the differentiated cells,[1],further increased
"Cc1cccc(-c2n[nH]cc2-c2ccc3ncccc3n2)n1 [compound 616452, 2-[3-(6-methyl-2-pyridinyl)-1H-pyrazol-4-yl]-1,5naphthyridine]",optimal concentration in inducing insulin-GFP expression,[3],5 µM
same,cells becoming GFP positive,[3]; during EEC differentiation from ISCs,about 1%
same,cell death in the culture,[4],induced cell death
same,Insulin mRNA (Ins2),[5]; added in Stage 1-3 compared with Stage 2-3,increased
same,optimal dose in promoting Insulin and Nkx6.1 expression,[5]; dose response,10 to 15 µM
same,"expression of mature EEC markers (Gcg, Gip, Cck, Tph1, Sst, Sct, Pyy)",[1]; 2-step protocol,greatly increased
same,goblet cell marker Muc2 expression,[1]; 2-step protocol,decreased
same,Cck expression over the expression level in the ENR condition,[1]; 2-step protocol with Repsox,430 ×
same,Gip expression over the expression level in the ENR condition,[1]; 2-step protocol with Repsox,800 ×
same,Pyy expression over the expression level in the ENR condition,[1]; 2-step protocol with Repsox,"15,000 ×"
same,Sct expression over the expression level in the ENR condition,[1]; 2-step protocol with Repsox,300 ×
same,Tph1 expression over the expression level in the ENR condition,[1]; 2-step protocol with Repsox,120 ×
same,ChgA level,[1]; [11],comparable level
same,expression of mature EEC markers,[1]; [11],greatly reduced
same,ChgA expression,[1]; [10],greatly promoted
same,"expression of functional EEC markers such as Gip, Gcg, Cck, Pyy",[1],greatly increase
EGF: epidermal growth factor,dead cells in the lumen of the differentiated cell colony,[4]; EGF removed in both steps,more dead cells
same,"EEC marker (ChgA, Gip, Gcg, CCK) expression on removing EGF from the media",[1]; 5 days,further increased
Exendin-4: factor identified to increase Insulin mRNA expression,Insulin mRNA expression,[5]; added in Stage 3,increase
